We go through 32 compounds from patent publication US11008292B2, “FGFR4 inhibitor and preparation method and use thereof” (GUANGDONG ZHONGSHENG PHARMACEUTICAL CO., LTD, priority 2016, dated 2021).

One data set deals with T1, FGFR4 kinases (Homo sapiens, UniProt P22455).
T1 construct: purchased Life technology
As to the kind of experiment: In vitro enzyme activity test, Z′-LYTE Assay, FGFR4 enzymatic reaction. It is filed as biochemical. To be noted: for IC50: Z′-LYTE detection, 150 μM ATP. The method, then:
(§1) The inhibitory effects of the compounds on FGFR4 kinases were assessed by detecting the enzymatic activities through Z′-LYTE® Assay, with the IC50 value of the compound as the indicator. This activity test was performed by Life technology.
(§2) The test compounds were diluted in a concentration gradient of 3-times, the final concentrations were 10 concentrations ranging from 10 μM to 0.5 nM, with double hole for each concentration; the content of DMSO in the detection reaction was 1%.
FGFR4 Enzymatic Reaction:
[…] The detection plate was Bar-coded Corning, low volume NBS, black 384-well plate, reaction conducted at room temperature for 60 minutes, and the reaction system was 10μμL.
(§3) To the kinase reaction solution was added 5 μL Development reagent B (1:64) to stop the reaction and incubated at 23° C. for 60 minutes, reading the plate with Envision instrument.
(§4) Data was transformed into the phosphorylation rate and the inhibitory rate by curve fitting with Model 205 in XLFIT (iDBS) to obtain the IC50 data of the compounds. It was set as 0% if the bottom of the curve was not in the range of −20% to 20%; otherwise it was set as 100% if the top of the curve was not in the range of 70% to 130%.

Another data set has as its target T2, FGFR1 protein kinase (Homo sapiens, UniProt P11362).
T2 construct: purchased Life technology
Description: In vitro enzyme activity test, Z′-LYTE Assay, FGFR1 enzymatic reaction. To be noted: Z′-LYTE detection; 25 μM ATP. It is filed as biochemical. As to the method:
as §1, §2
FGFR1 Enzymatic Reaction:
1 nM FGFR1 protein kinase, 2 μM Tyr4 peptide, 25 μM ATP, 50 mM HEPES (pH 7.5), 10 mM MgCl2, 1 mM EGTA, 0.01% BRIJ-35, 2 mM MnCl2, 1 mM DTT. The detection plate was Black Proxiplate 384-Plus plate (PerkinElmer), reaction conducted at room temperature for 60 minutes, and the reaction system was 10μμL.
as §3, §4

Data set [1] in a line: Pharmacokinetic evaluation in mice (IV and oral gavage). To be noted: for F (bioavailability; oral absorption ratio): PO gavage 10 mg/kg vs IV 2 mg/kg; for clearance: read-out: Cl (plasma clearance); for half-life: read-out: T1/2 (elimination half-life) (converted); for Vd: read-out: Vdss (steady-state apparent volume of distribution); for Cmax: read-out: Cmax (peak concentration); for Tmax: read-out: Tmax (time to peak). Type of data set: in vivo, female Balb/c nude mice. As to the method:
[…] The test compound suspended in the corresponding solvent at 1 mg/ml was administered by gavage to female Balb/c nude mice (fasted overnight, at an age of 7-9 weeks), with a dosage of 10 mg/kg. Two groups of animals were both blood sampled about 30 μL from jugular vein or tail vein at 0.0833, 0.25, 0.5, 1.0, 2.0, 4.0, 6.0, 8.0 and 24 h post-administration, which was placed into an anticoagulant tube charged with EDTA-K2, and plasma was separated by centrifugation. Plasma concentrations were determined by LC-MS/MS process using WinNonlin™ Version 6.3 (Pharsight, Mountain View, Calif.) pharmacokinetic software, calculating the related pharmacokinetic parameters with a linear logarithmic trapezoidal method for […] models.

[2] abbreviates: mouse, plasma, IV tail vein 2 mg/kg, female Balb/c nude mice.
Where [3] appears, read: mouse, plasma, IV tail vein 0.2 mg/kg, female Balb/c nude mice.
The mark [4] stands for this setting: mouse, plasma, PO gavage 10 mg/kg, female Balb/c nude mice.

Where two headings read alike, the source gives them in different places.

T1 sequence (P22455 22-802): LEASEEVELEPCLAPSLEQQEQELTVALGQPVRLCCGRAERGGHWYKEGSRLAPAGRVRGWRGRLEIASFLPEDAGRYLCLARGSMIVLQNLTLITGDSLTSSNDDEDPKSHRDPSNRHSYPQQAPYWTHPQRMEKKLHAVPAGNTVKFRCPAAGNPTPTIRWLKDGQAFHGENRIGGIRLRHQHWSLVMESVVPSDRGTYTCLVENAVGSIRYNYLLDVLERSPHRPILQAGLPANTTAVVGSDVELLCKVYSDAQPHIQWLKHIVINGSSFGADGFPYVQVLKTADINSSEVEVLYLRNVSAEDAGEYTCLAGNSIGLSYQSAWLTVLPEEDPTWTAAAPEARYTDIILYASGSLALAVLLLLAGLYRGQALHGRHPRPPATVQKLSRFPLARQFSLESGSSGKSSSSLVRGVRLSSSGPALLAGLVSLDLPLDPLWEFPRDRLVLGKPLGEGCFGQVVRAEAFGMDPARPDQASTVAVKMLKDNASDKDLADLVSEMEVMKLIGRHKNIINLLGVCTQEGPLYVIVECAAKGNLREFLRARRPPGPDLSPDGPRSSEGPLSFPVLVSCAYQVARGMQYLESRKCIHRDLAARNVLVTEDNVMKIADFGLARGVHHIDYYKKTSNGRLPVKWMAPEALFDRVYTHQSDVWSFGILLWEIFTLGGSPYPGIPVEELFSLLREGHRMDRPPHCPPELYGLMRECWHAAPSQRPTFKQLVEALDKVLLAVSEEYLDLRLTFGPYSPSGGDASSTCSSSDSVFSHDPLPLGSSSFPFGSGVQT
T2 sequence (P11362 22-822): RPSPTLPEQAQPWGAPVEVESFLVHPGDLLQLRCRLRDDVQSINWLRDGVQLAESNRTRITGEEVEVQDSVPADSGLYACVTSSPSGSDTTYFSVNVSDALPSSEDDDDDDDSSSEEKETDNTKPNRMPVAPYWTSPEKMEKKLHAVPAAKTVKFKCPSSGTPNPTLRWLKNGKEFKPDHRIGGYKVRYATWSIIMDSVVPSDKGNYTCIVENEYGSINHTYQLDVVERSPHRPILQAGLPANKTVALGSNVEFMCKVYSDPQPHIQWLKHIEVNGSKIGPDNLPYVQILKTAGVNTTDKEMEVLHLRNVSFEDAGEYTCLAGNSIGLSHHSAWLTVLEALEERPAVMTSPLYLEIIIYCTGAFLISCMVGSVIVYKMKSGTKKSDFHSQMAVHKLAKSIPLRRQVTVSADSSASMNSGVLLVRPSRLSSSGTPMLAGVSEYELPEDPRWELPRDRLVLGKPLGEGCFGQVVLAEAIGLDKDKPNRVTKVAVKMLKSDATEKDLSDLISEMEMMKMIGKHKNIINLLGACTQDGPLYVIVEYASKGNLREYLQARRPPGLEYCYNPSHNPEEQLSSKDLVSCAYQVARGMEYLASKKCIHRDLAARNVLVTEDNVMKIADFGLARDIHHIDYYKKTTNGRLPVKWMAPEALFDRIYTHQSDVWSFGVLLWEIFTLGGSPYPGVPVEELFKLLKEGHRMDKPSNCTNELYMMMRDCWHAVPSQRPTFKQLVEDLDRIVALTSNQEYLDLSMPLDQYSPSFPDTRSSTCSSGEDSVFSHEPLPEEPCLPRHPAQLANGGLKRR

As to `C=CC(=O)Nc1cccc(C)c1Nc1ccc(/C(F)=C(\C)c2c(Cl)c(OC)cc(OC)c2Cl)cn1` [Example 10], at FGFR4 kinases, inhibition was half-maximal at 544 nM (IC50).
In the case of `C=CC(=O)Nc1ccc(Cl)c(C)c1Nc1ccc(/C=C(\F)c2c(Cl)c(OC)cc(OC)c2Cl)cn1` [Example 31], the IC50 (commonly the midpoint of a concentration-inhibition curve) was 560 nM on FGFR4 kinases and greater than 10000 nM against FGFR1 protein kinase.
Regarding `C=CC(=O)Nc1cccc(Cl)c1Nc1ccc(/C=C(\F)c2c(Cl)c(OC)cc(OC)c2Cl)cn1` [Example 23], inhibition against FGFR4 kinases was half-maximal at 387 nM (IC50).
Turning to `C=CC(=O)Nc1cc(N2CCN(CC)CC2)cc(C)c1Nc1ncc(/C=C(\F)c2c(Cl)c(OC)cc(OC)c2Cl)cn1` [Example 15], the figures for the IC50 against FGFR4 kinases and against FGFR1 protein kinase were 1.58 nM and 813 nM, respectively. The “FGFR4 inhibitory activity enhancement vs control example” value at FGFR4 kinases (ratio to control example 2) was roughly 9 times.
Turning to `C=CC(=O)Nc1cc(N2CCN(CC)CC2)c(OC)cc1Nc1ncc(/C=C(\F)c2c(Cl)c(OC)cc(OC)c2Cl)cn1` [Example 12], the figures for the IC50 on FGFR4 kinases and against FGFR1 protein kinase were 10.9 nM and 25.8 nM, respectively.
Take `C=CC(=O)Nc1ccc(OCCN2CCN(C)CC2)c(C)c1Nc1ncc(/C=C(\F)c2c(Cl)c(OC)cc(OC)c2Cl)cn1` [Example 14]: the results for the IC50 at FGFR4 kinases and at FGFR1 protein kinase were 17.7 nM and 182 nM, respectively.
Take `C=CC(=O)Nc1cccc(C)c1Nc1ncc(OCc2c(F)c(OC)cc(OC)c2F)cn1` [Control example 6]: the “F (bioavailability; oral absorption ratio)” value in data set [1] (female Balb/c nude mice) is 0%. Also, in data set [1] (setting [2]), the AUC(0-t) (commonly exposure summed from dosing to a finite time, without extrapolation to infinity) came out at 0.388 µM·h; the clearance was 186 mL/min/kg; the half-life is 14.1 min; the Vd was 2.44 L/kg.
Take `C=CC(=O)N[C@H]1CCOC[C@H]1Nc1ncc(OCc2c(F)c(OC)cc(OC)c2F)cn1` [Control example 4]: in data set [1] (female Balb/c nude mice), the “F (bioavailability; oral absorption ratio)” value was 0%. Further, in data set [1] (setting [2]), the AUC(0-t) was found to be 0.958 µM·h, the clearance came to 77.1 mL/min/kg, the half-life was 6.84 min and the Vd worked out at 0.533 L/kg.
In the case of `C=CC(=O)Nc1ccc(OC)c(C)c1Nc1ncc(/C=C(\F)c2c(Cl)c(OC)cc(OC)c2Cl)cn1` [Example 35], the IC50 came to 23 nM on FGFR4 kinases and 174 nM against FGFR1 protein kinase.
Turning to `C=CC(=O)N[C@@H]1CCC[C@@H]1Nc1ncc(/C=C(\F)c2c(Cl)c(OC)cc(OC)c2Cl)cn1` [Example 25], the results for the IC50 at FGFR4 kinases and against FGFR1 protein kinase were 476 nM and 355 nM, respectively.
Take `C=CC(=O)N[C@H]1COC[C@H]1Nc1ncc(OCc2c(F)c(OC)cc(OC)c2F)cn1` [Control example 7]: in data set [1] (IV tail vein 0.2 mg/kg, female Balb/c nude mice), the “Cl (plasma clearance)” value was determined as 65 mL/min/kg. Besides, in data set [1] (setting [3]), the AUC(0-t) turned out to be 0.113 µM·h, the half-life was 6.54 min and the Vd was 0.581 L/kg. Further, the bioavailability – broadly, the share of a dose that reaches the circulation, judged against a reference dose that is usually intravenous – in data set [1] (mouse, plasma, PO gavage 1.0 mg/kg vs IV 0.2 mg/kg, female Balb/c nude mice, read-out: F (bioavailability)) came out at 0%.
Consider `C=CC(=O)Nc1cc(N2CCN(CC)CC2)cc(C)c1Nc1ncc(/C(F)=C/c2c(Cl)c(OC)cc(OC)c2Cl)cn1` [Example 11], for which the IC50 was 20.1 nM at FGFR4 kinases and 4980 nM against FGFR1 protein kinase.
For `C=CC(=O)Nc1cccc(C)c1Nc1ccc(/C(F)=C/c2c(Cl)c(OC)cc(OC)c2Cl)cn1` [Example 1], the IC50 at FGFR4 kinases was 112 nM; on FGFR1 protein kinase, greater than 10000 nM. The “FGFR4 inhibitory activity enhanced compared with the control example 1” value at FGFR4 kinases (ratio to control example 1) is recorded as 70 times.
With `C=CC(=O)Nc1ccc(N2CCN(CC)CC2)c(C)c1Nc1ncc(/C=C(\F)c2c(Cl)c(OC)cc(OC)c2Cl)cn1` [Example 13], the IC50 at FGFR4 kinases turned out to be 30.1 nM; on FGFR1 protein kinase, 613 nM.
For the compound `C=CC(=O)Nc1cc(F)cc(C)c1Nc1ncc(/C=C(\F)c2c(Cl)c(OC)cc(OC)c2Cl)cn1` [Example 30], on FGFR4 kinases, the IC50 turned out to be 238 nM.
Compound `C=CC(=O)Nc1cccc(C)c1Nc1ncc(/C=C(\F)c2c(Cl)c(OC)cc(OC)c2Cl)cn1` [Example 24] displayed an IC50 against FGFR4 kinases of 10 nM. In addition, the midpoint of inhibition on FGFR1 protein kinase, the IC50, lay at 2100 nM. In data set [1] (IV, mice, ratio to control example 5), the “stability enhanced (plasma clearance) compared with the control example 5” value was 2 times. The “stability enhanced (plasma clearance) compared with the control example 6” value in data set [1] (IV, mice, ratio to control example 6) is on record as “more than 3 times”. Moreover, the “F (bioavailability; oral absorption ratio)” value in data set [1] (female Balb/c nude mice) was determined as 14.8%. In addition, in data set [1] (setting [2]), the AUC(0-t) is 1.32 µM·h, the clearance was 50 mL/min/kg, the half-life is 32.9 min and the Vd came to 1.82 L/kg. Moreover, in data set [1] (setting [4]), the AUC(0-t) turned out to be 0.962 µM·h, the Cmax was determined as 282 nM and the Tmax (usually the time at which the peak concentration occurs) is 30 min.
As to `C=CC(=O)Nc1cccc(F)c1Nc1ccc(/C=C(\F)c2c(Cl)c(OC)cc(OC)c2Cl)cn1` [Example 18], the IC50 turned out to be 105 nM on FGFR4 kinases and 1900 nM on FGFR1 protein kinase.
For the compound `C=CC(=O)N[C@@H]1COC[C@@H]1Nc1ncc(/C(F)=C/c2c(Cl)c(OC)cc(OC)c2Cl)cn1` [Example 32], half-maximal inhibition against FGFR4 kinases (IC50) was put at 361 nM.
The compound `C=CC(=O)Nc1cc(F)c(F)cc1Nc1ccc(/C=C(\F)c2c(Cl)c(OC)cc(OC)c2Cl)cn1` [Example 22] came in with an IC50 on FGFR4 kinases of 575 nM.
`C=CC(=O)N[C@H]1COC[C@H]1Nc1ncc(/C=C/c2c(Cl)c(OC)cc(OC)c2Cl)cn1` [Control example 3, reference compound] gave an IC50 at FGFR4 kinases of 408 nM.
On to `C=CC(=O)N[C@H]1COC[C@H]1Nc1ncc(OCc2c(Cl)c(OC)cc(OC)c2Cl)cn1` [Control example 8], for which the “F (bioavailability; oral absorption ratio)” value in data set [1] (female Balb/c nude mice) came to 12.3%. In data set [1] (setting [2]), the AUC(0-t) came out at 1.8 µM·h, the clearance came out at 39.7 mL/min/kg, the half-life is 9.24 min and the Vd was 0.407 L/kg. Also, in data set [1] (setting [4]), the AUC(0-t) was 1.1 µM·h, the Cmax was 2710 nM and the Tmax was determined as 15 min.
On to `C=CC(=O)N[C@H]1COC[C@H]1Nc1ncc(/C=C(\F)c2c(Cl)c(OC)cc(OC)c2Cl)cn1` [Example 19], for which the IC50 was 47 nM on FGFR4 kinases and 3100 nM at FGFR1 protein kinase. Also, at FGFR4 kinases (ratio to control example 3), the “FGFR4 inhibitory activity enhancement vs control example” value was roughly 9 times.
Turning to `C=CC(=O)Nc1cccc(C)c1Nc1ncc(/C(F)=C/c2c(Cl)c(OC)cc(OC)c2Cl)cn1` [Example 2], the IC50 was 84 nM at FGFR4 kinases and greater than 10000 nM on FGFR1 protein kinase.
In turn, `C=CC(=O)Nc1cc(F)cc(C)c1Nc1ccc(/C=C(\F)c2c(Cl)c(OC)cc(OC)c2Cl)cn1` [Example 29] had a concentration for half-maximal inhibition (IC50) on FGFR4 kinases of 268 nM.
On to `C=CC(=O)Nc1cc(N2CCN(C(C)=O)CC2)cc(C)c1Nc1ncc(/C=C(\F)c2c(Cl)c(OC)cc(OC)c2Cl)cn1` [Example 26], for which half-maximal inhibition on FGFR4 kinases (IC50) was put at 13 nM.
As for `C=CC(=O)Nc1cccc(C)c1Nc1ncc(OCc2c(Cl)c(OC)cc(OC)c2Cl)cn1` [Control example 5], the “F (bioavailability; oral absorption ratio)” value in data set [1] (female Balb/c nude mice) turned out to be 0%. In data set [1] (setting [2]), the AUC(0-t) came out at 0.528 µM·h, the clearance came to 127 mL/min/kg, the half-life was 13.3 min and the Vd amounted to 1.28 L/kg.
`C=CC(=O)NC1CN(C(C)=O)CC1Nc1ncc(/C=C(\F)c2c(Cl)c(OC)cc(OC)c2Cl)cn1` (stereo not shown) [Example 34]: inhibition against FGFR4 kinases was half-maximal at 199 nM (IC50).
Still for that read-out and setting: to `C=CC(=O)Nc1cccc(C)c1Nc1cnc(/C(F)=C/c2c(Cl)c(OC)cc(OC)c2Cl)cn1` [Example 5] belongs 203 nM.
In the case of `C=CC(=O)Nc1cc(N2CCN(CC)CC2)cc(C)c1Nc1ncc(/C=C/c2c(Cl)c(OC)cc(OC)c2Cl)cn1` [Control example 2, reference compound], the IC50 against FGFR4 kinases was found to be 14 nM; on FGFR1 protein kinase, 2970 nM.
For `C=CC(=O)Nc1cccc(C)c1Nc1ccc(/C(F)=C/c2cc(OC)cc(OC)c2)cn1` [Control example 1, reference compound] the same measures were 8060 nM and greater than 10000 nM.
For `C=CC(=O)Nc1cc(Cl)cc(F)c1Nc1ccc(/C=C(\F)c2c(Cl)c(OC)cc(OC)c2Cl)cn1` [Example 28] the same measures were 263 nM and 3210 nM.
As for `C=CC(=O)Nc1cccc(F)c1Nc1ccc(/C(F)=C/c2c(Cl)c(OC)cc(OC)c2Cl)cn1` [Example 6], the IC50 against FGFR4 kinases is 124 nM; on FGFR1 protein kinase it was greater than 10000 nM.
